Test results: article PMC3514116 (BMC Plant Biology, 2012)
Marks after values point to notes of the source that are not given here. Ends that are not written are not given here.

Tests used:
rice Senia seeds = test: Phytotoxicity, rice germination assay; format: in vivo, Oryza sativa L.; settings: for Phytotoxicity (germination): minimal peptide concentration causing significant alteration of shoot length: 12 Senia seeds per treatment germinated 7 days in 0, 8, 16, 32, 64 μM peptide, 28°C, one-way ANOVA; for Effect on rice seedling development at high concentrations: germination test, Senia seeds, 7 days, 125 and 250 μM also tested
Experimental: For each treatment, a total of 12 surface-sterilized Senia seeds were germinated in 500 μl water or peptide solution at the appropriate concentration (0, 8, 16, 32 and 64 μM) in a culture chamber (28 ± 1°C with a photoperiod of 16 h light / 8 h dark under fluorescent Sylvania Cool White lamps) for seven days. Seedling morphology was recorded and shoot length was measured.

[1] = tested on: erythrocyte suspensions of fresh human blood; test: Hemolytic activity (hemoglobin release); format: cell-based; settings: human erythrocytes 5% v/v, TRIS/NaCl pH 7.2, 150 μM peptide, 1 h 37°C, A540
Experimental: Hemoglobin release from erythrocyte suspensions of fresh human blood (5% v/v) was used to evaluate hemolytic activity of synthetic peptides. Briefly, aseptically collected blood (BD vacutainer K2E System with EDTA, Belliver Industrial State, Plymouth, UK) was centrifuged at 6,000 g for 5 min, washed with 10 mM TRIS, 150 mM NaCl, pH 7.2 and suspended in the same buffer. Fifty μl of peptide solutions at 300 μM were mixed with 50 μl aliquots of erythrocyte suspensions and incubated for 1h at 37 °C with shaking. After centrifugation, the supernatants were transferred to microplate wells with 80 μl H2O and the 540 nm absorbance was monitored with a Bioscreen plate reader. Hemolysis percentages were calculated relative to mellitin and TRIS buffer.

tobacco leaves = test: Phytotoxicity, tobacco leaf inoculation assay; format: in vivo, Nicotiana benthamiana; settings: for Phytotoxicity at 150 μM (inoculation): lesion diameter: 100 μl of 150 μM peptide inoculated into tobacco leaf mesophyll, three days, mean and standard error, at least three inoculations
Experimental: Tobacco (Nicotiana benthamiana) plants were grown from seed in a heated glasshouse and used between 20 and 30 days old. One hundredμl chemically synthesized peptides at 50, 100, 150 or 250 μM were inoculated into the mesophylls of fully expanded tobacco leaves (previously wounded with a needle), using a syringe without needle, and plants were kept at standard glasshouse conditions for three days. Up to six independent inoculations were carried out in a single leaf, and at least three independent inoculations were performed per peptide and concentration, randomly distributed in different leaves and plants. Toxicity was measured as the lesion diameter.

[2] = tested on: Xanthomonas axonopodis pv. vesicatoria 2133-2 (Xav); test: In vitro growth inhibition (MIC), Xanthomonas axonopodis pv. vesicatoria; settings: 10^8 bacterial CFU/ml suspension in TSB, microtiter plate, 25°C 48 h, OD 600 nm; three replicates, two experimental replicates
Experimental: (§1) Peptides were solubilized in sterile Milli-Q H2O to a concentration of 1 mM and filter sterilized through a 0.22 μm pore filter. […] Bacterial strains were stored at −80°C in Luria Bertani (LB) broth with glycerol (20%). After 24 h (Ea, Pss and Dc) or 48 h (Xav) growth in LB agar at 25°C, bacterial colonies were scraped off the surface, suspended in sterile H2O and adjusted to 10^8 CFU/ml. The fungal strain was stored at 4°C in the particulate solid carrier perlite, on fresh potato dextrose agar (PDA). Fv cultures were prepared in potato dextrose broth (PDB) and incubated for one week at 25°C in the dark in a rotary shaker at 125 rpm. They were filtered through several layers of sterile cheesecloth to eliminate macroconidia and mycelial growth. The effluent was centrifuged at 8,000 rpm for 20 min at 4°C and the pellet was suspended in sterile water. Microconidia concentration was determined in a counting chamber.
(§2) Serial dilutions of synthetic peptides were prepared at 400, 200, 100, 50, 25, 12.5 and 6 μM. […] Microplates were incubated at 25°C for 48 h (bacterial strains) or 22°C for 6 days (Fv), and optical densities at 600 nm were recorded hourly (every two hours for Fv) after 20 s shaking. […]

mice = settings: cited from earlier work
[3] = tested on: erythrocyte suspensions of fresh human blood; settings: human erythrocytes 5% v/v, TRIS/NaCl pH 7.2, 1 h 37°C, A540, relative to mellitin; confidence interval for α = 0.05; cited from earlier work
[4] = tested on: Dickeya chrysanthemi 1552-10-1 (Dc); test: In vitro growth inhibition (MIC), Dickeya chrysanthemi; settings: 10^8 bacterial CFU/ml suspension in TSB, microtiter plate, 25°C 48 h, OD 600 nm; three replicates, two experimental replicates
Experimental: as §1, §2

[5] = tested on: Pseudomonas syringae pv. syringae EPS94 (Pss); test: In vitro growth inhibition (MIC), Pseudomonas syringae pv. syringae; settings: 10^8 bacterial CFU/ml suspension in TSB, microtiter plate, 25°C 48 h, OD 600 nm; three replicates, two experimental replicates
Experimental: as §1, §2

[6] = tested on: Erwinia amylovora PMV6076 (Ea); test: In vitro growth inhibition (MIC), Erwinia amylovora; settings: 10^8 bacterial CFU/ml suspension in TSB, microtiter plate, 25°C 48 h, OD 600 nm; three replicates, two experimental replicates; MIC = lowest concentration with no growth
Experimental: as §1, §2

Compound | Phytotoxicity (germination): minimal peptide concentration causing significant alteration of shoot length (rice Senia seeds) | Hemolytic activity at 150 μM, ratio between each peptide and the reference peptide BP100 [1] | Phytotoxicity at 150 μM (inoculation): lesion diameter (tobacco leaves) | Antimicrobial activity Xav, minimal inhibitory concentration (MIC) [2] | Effect on rice seedling development at high concentrations (rice Senia seeds) | Biocompatibility in acute oral toxicity tests (mice) | Hemolytic activity at 150 μM [3] | Antimicrobial activity Dc, minimal inhibitory concentration (MIC) [4] | Antimicrobial activity Pss, minimal inhibitory concentration (MIC) [5] | Antimicrobial activity Ea, minimal inhibitory concentration (MIC) [6] | Lesions in tobacco leaves compared with BP100 and BP100 derivatives (tobacco leaves; inoculation of 50 to 250 μM, same doses, positive control)
CC[C@H](C)[C@H](NC(=O)[C@H](CCCCN)NC(=O)[C@H](CCCCN)NC(=O)[C@H](Cc1ccccc1)NC(=O)[C@H](CC(C)C)NC(=O)[C@H](CCCCN)NC(=O)[C@@H](N)CCCCN)C(=O)N[C@@H](CC(C)C)C(=O)N[C@@H](CCCCN)C(=O)N[C@@H](Cc1ccc(O)cc1)C(=O)N[C@@H](CC(C)C)C(=O)N[C@@H](CCCCN)C(=O)N[C@@H](CC(=O)O)C(=O)N[C@@H](CCC(=O)O)C(=O)N[C@@H](CC(C)C)C(N)=O [BP100.1] | 64 µM | <1 | 1.17 cm |  |  |  |  |  |  |  | 
CC[C@H](C)[C@H](NC(=O)[C@H](CC(C)C)NC(=O)[C@H](CCCCN)NC(=O)[C@H](Cc1ccc(O)cc1)NC(=O)[C@H](CC(C)C)NC(=O)[C@H](C)NC(=O)[C@@H]1CCCN1C(=O)CNC(=O)[C@H](C)NC(=O)[C@H](CC(C)C)NC(=O)[C@H](Cc1ccc(O)cc1)NC(=O)[C@H](CCCCN)NC(=O)[C@H](CC(C)C)NC(=O)[C@@H](NC(=O)[C@H](CCCCN)NC(=O)[C@H](CCCCN)NC(=O)[C@H](Cc1ccccc1)NC(=O)[C@H](CC(C)C)NC(=O)[C@H](CCCCN)NC(=O)[C@@H](N)CCCCN)[C@@H](C)CC)C(=O)N[C@@H](CCCCN)C(=O)N[C@@H](CCCCN)C(=O)N[C@@H](Cc1ccccc1)C(=O)N[C@@H](CC(C)C)C(=O)N[C@@H](CCCCN)C(=O)N[C@@H](CCCCN)C(=O)N[C@@H](CCCCN)C(=O)N[C@@H](CC(=O)O)C(=O)N[C@@H](CCC(=O)O)C(=O)N[C@@H](CC(C)C)C(N)=O [BP100.2i] | 16 µM | 4 | 1.32 ± 0.06^b cm |  |  |  |  |  |  |  | 
CC[C@H](C)[C@H](NC(=O)[C@H](CCCCN)NC(=O)[C@H](CCCCN)NC(=O)[C@H](Cc1ccccc1)NC(=O)[C@H](CC(C)C)NC(=O)[C@H](CCCCN)NC(=O)[C@@H](N)CCCCN)C(=O)N[C@@H](CC(C)C)C(=O)N[C@@H](CCCCN)C(=O)N[C@@H](Cc1ccc(O)cc1)C(=O)N[C@@H](CC(C)C)C(N)=O [BP100] | 64 µM |  | 0.90 ± 0.05^a cm | 5.0 to 10 µM | barely effected root growth but almost completely inhibited shoot development | highly biocompatible | 22.0 ± 2.8% | 5 to 10 µM |  |  | 
CC[C@H](C)[C@H](NC(=O)[C@H](CCCCN)NC(=O)[C@H](CCCCN)NC(=O)[C@H](Cc1ccccc1)NC(=O)[C@H](CC(C)C)NC(=O)[C@H](CCCCN)NC(=O)[C@@H](N)CCCCN)C(=O)N[C@@H](CC(C)C)C(=O)N[C@@H](CCCCN)C(=O)N[C@@H](Cc1ccc(O)cc1)C(=O)N[C@@H](CC(C)C)C(=O)O [unmodified BP100] | 64 µM | 1 | 0.80 ± 0.02^a cm | 10 to 20 µM |  |  |  | 10 to 20 µM | 5.0 to 10 µM | 5.0 to 10 µM | 
KKLFKKILKYLAGPAKKLFKKILKYLAGPAKKLFKKILKYLKDEL-NH2 (C-terminus assumed) [BP100.3] | 16 µM | 4 | 1.38 ± 0.04^b cm |  |  |  |  |  |  |  | 
KKLFKKILKYLAGPAKKLFKKILKYLKDEL-NH2 (C-terminus assumed) [BP100.2] | 32 µM | 3 | 1.15 cm |  |  |  |  |  |  |  | 
KKLFKKILKYLTTGLPALISAGPASILAPLGTTLYKLIKKFLKKKDEL-NH2 (C-terminus assumed) [BP100.2mi] | 16 µM | 5 | 1.46 ± 0.12^b cm |  |  |  |  |  |  |  | 
mellitin: highly cytotoxic, potent hemolytic natural AMP, 26 amino acids, positive control [reference compound] |  |  |  |  | predominantly inhibited root growth while allowing moderate shoot development |  |  |  |  |  | more severe lesions
